Results from PubChem BioAssay (NCI).
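How tested: cells in 96-well plates exposed to compound for 48 hours at five concentrations. GI50 is the concentration that inhibits growth by half. TGI: concentration producing complete growth inhibition.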

Key:
Experiment in all cases: inhibition of tumour cell growth, NCI panel, 48 h
HCT-116 colon = test system: HCT-116 colon
IGROV1 ovarian = test system: IGROV1 ovarian
SW-620 colon = test system: SW-620 colon
HCT-15 colon = test system: HCT-15 colon
SF-295 CNS = test system: SF-295 CNS
SK-MEL-2 melanoma = test system: SK-MEL-2 melanoma
CAKI-1 renal = test system: CAKI-1 renal
HOP-62 NSCLC = test system: HOP-62 NSCLC
SK-MEL-5 melanoma = test system: SK-MEL-5 melanoma
HS 578T breast = test system: HS 578T breast
COLO 205 colon = test system: COLO 205 colon
SK-MEL-28 melanoma = test system: SK-MEL-28 melanoma
SK-OV-3 ovarian = test system: SK-OV-3 ovarian
M14 melanoma = test system: M14 melanoma
DU-145 prostate = test system: DU-145 prostate
NCI/ADR-RES ovarian = test system: NCI/ADR-RES ovarian
UACC-62 melanoma = test system: UACC-62 melanoma
A498 renal = test system: A498 renal
HCC-2998 colon = test system: HCC-2998 colon
RXF 393 renal = test system: RXF 393 renal
ACHN renal = test system: ACHN renal
EKVX NSCLC = test system: EKVX NSCLC
SNB-19 CNS = test system: SNB-19 CNS
OVCAR-8 ovarian = test system: OVCAR-8 ovarian
OVCAR-5 ovarian = test system: OVCAR-5 ovarian
SF-268 CNS = test system: SF-268 CNS
NCI-H460 lung = test system: NCI-H460 lung
K-562 leukemia = test system: K-562 leukemia
MDA-MB-231 breast = test system: MDA-MB-231 breast
CCRF-CEM leukemia = test system: CCRF-CEM leukemia
T-47D breast = test system: T-47D breast
MCF7 breast = test system: MCF7 breast
BT-549 breast = test system: BT-549 breast
RPMI-8226 leukemia = test system: RPMI-8226 leukemia
OVCAR-3 ovarian = test system: OVCAR-3 ovarian
PC-3 prostate = test system: PC-3 prostate
OVCAR-4 ovarian = test system: OVCAR-4 ovarian
UO-31 renal = test system: UO-31 renal
LOX IMVI melanoma = test system: LOX IMVI melanoma
786-0 renal = test system: 786-0 renal
HT29 colon = test system: HT29 colon
UACC-257 melanoma = test system: UACC-257 melanoma
SNB-75 CNS = test system: SNB-75 CNS
HL-60(TB) leukemia = test system: HL-60(TB) leukemia
SN12C renal = test system: SN12C renal
SR leukemia = test system: SR leukemia
MDA-MB-435 = test system: MDA-MB-435
HOP-92 NSCLC = test system: HOP-92 NSCLC
A549 NSCLC = test system: A549 NSCLC
U251 CNS = test system: U251 CNS
SF-539 CNS = test system: SF-539 CNS
TK-10 renal = test system: TK-10 renal
KM12 colon = test system: KM12 colon
MOLT-4 leukemia = test system: MOLT-4 leukemia
NCI-H522 lung = test system: NCI-H522 lung
MALME-3M melanoma = test system: MALME-3M melanoma
NCI-H23 lung = test system: NCI-H23 lung
NCI-H226 lung = test system: NCI-H226 lung

With `COc1cc(NCCCCCN=C(N)N)c2ncccc2c1` the GI50 (HCT-116 colon) was 2.74 µM, the TGI (HCT-116 colon) was > 63.5 µM and the GI50 (IGROV1 ovarian) was 1.03 µM. The TGI (IGROV1 ovarian) was > 36 µM, the GI50 (SW-620 colon) was 4.97 µM and the TGI (SW-620 colon) was > 100 µM. For the same compound, the GI50 (HCT-15 colon) was 43.9 µM, the TGI (HCT-15 colon) was > 100 µM and the GI50 (SF-295 CNS) was 17.1 µM. It also gave a TGI (SF-295 CNS) of 97.8 µM, a GI50 (SK-MEL-2 melanoma) of 3.31 µM and a TGI (SK-MEL-2 melanoma) of 16.1 µM. For the same compound, the GI50 (CAKI-1 renal) was > 100 µM, the TGI (CAKI-1 renal) was > 100 µM and the GI50 (HOP-62 NSCLC) was 10.1 µM. The TGI (HOP-62 NSCLC) was > 93.4 µM, the GI50 (SK-MEL-5 melanoma) was 2.31 µM and the TGI (SK-MEL-5 melanoma) was 6.86 µM. For the same compound, the GI50 (HS 578T breast) was 19 µM, the TGI (HS 578T breast) was > 65.4 µM and the GI50 (COLO 205 colon) was 2.92 µM. The TGI (COLO 205 colon) was 9.3 µM, the GI50 (SK-MEL-28 melanoma) was 14.6 µM and the TGI (SK-MEL-28 melanoma) was 38.6 µM. For the same compound, the GI50 (SK-OV-3 ovarian) was 60 µM, the TGI (SK-OV-3 ovarian) was > 100 µM and the GI50 (M14 melanoma) was 17.7 µM. For the same compound, the TGI (M14 melanoma) was 54.1 µM, the GI50 (DU-145 prostate) was 35.1 µM and the TGI (DU-145 prostate) was > 100 µM. The GI50 (NCI/ADR-RES ovarian) was > 100 µM, the TGI (NCI/ADR-RES ovarian) was > 100 µM and the GI50 (UACC-62 melanoma) was 7.2 µM. The TGI (UACC-62 melanoma) was 24 µM, the GI50 (A498 renal) was 42.5 µM and the TGI (A498 renal) was > 100 µM. The GI50 (HCC-2998 colon) was 3.97 µM, the TGI (HCC-2998 colon) was > 33.9 µM and the GI50 (RXF 393 renal) was 24.9 µM. For the same compound, the TGI (RXF 393 renal) was > 94.7 µM, the GI50 (ACHN renal) was 41.5 µM and the TGI (ACHN renal) was > 100 µM. The GI50 (EKVX NSCLC) was 4.79 µM, the TGI (EKVX NSCLC) was > 50.5 µM and the GI50 (SNB-19 CNS) was 5.62 µM. The TGI (SNB-19 CNS) was 30.3 µM, the GI50 (OVCAR-8 ovarian) was 4.24 µM and the TGI (OVCAR-8 ovarian) was > 71.7 µM. The GI50 (OVCAR-5 ovarian) was 5.73 µM, the TGI (OVCAR-5 ovarian) was 30 µM and the GI50 (SF-268 CNS) was 3.59 µM. For the same compound, the TGI (SF-268 CNS) was 22.6 µM, the GI50 (NCI-H460 lung) was 7.09 µM and the TGI (NCI-H460 lung) was > 57.5 µM. For the same compound, the GI50 (K-562 leukemia) was 5.16 µM, the TGI (K-562 leukemia) was > 88.2 µM and the GI50 (MDA-MB-231 breast) was 2.65 µM. The TGI (MDA-MB-231 breast) was 12.3 µM, the GI50 (CCRF-CEM leukemia) was 5.1 µM and the TGI (CCRF-CEM leukemia) was > 74.3 µM. The GI50 (T-47D breast) was 1.07 µM, the TGI (T-47D breast) was 6.98 µM and the GI50 (MCF7 breast) was 0.179 µM. It also gave a TGI (MCF7 breast) of 1.11 µM, a GI50 (BT-549 breast) of 5.38 µM and a TGI (BT-549 breast) of 18.5 µM. The GI50 (RPMI-8226 leukemia) was 5.45 µM, the TGI (RPMI-8226 leukemia) was 33.5 µM and the GI50 (OVCAR-3 ovarian) was 0.468 µM. For the same compound, the TGI (OVCAR-3 ovarian) was 9.03 µM, the GI50 (PC-3 prostate) was 3.47 µM and the TGI (PC-3 prostate) was > 49.6 µM. The GI50 (OVCAR-4 ovarian) was 0.043 µM, the TGI (OVCAR-4 ovarian) was 0.953 µM and the GI50 (UO-31 renal) was > 100 µM. The TGI (UO-31 renal) was > 100 µM, the GI50 (LOX IMVI melanoma) was 8.21 µM and the TGI (LOX IMVI melanoma) was > 56.1 µM. The GI50 (786-0 renal) was 23.8 µM, the TGI (786-0 renal) was > 100 µM and the GI50 (HT29 colon) was 5.97 µM. For the same compound, the TGI (HT29 colon) was > 80.7 µM, the GI50 (UACC-257 melanoma) was 4.38 µM and the TGI (UACC-257 melanoma) was 16.7 µM. For the same compound, the GI50 (SNB-75 CNS) was 3.25 µM, the TGI (SNB-75 CNS) was 16.6 µM and the GI50 (HL-60(TB) leukemia) was 3.46 µM. It also gave a TGI (HL-60(TB) leukemia) of 15.2 µM, a GI50 (SN12C renal) of 3.57 µM and a TGI (SN12C renal) of 13.7 µM. The GI50 (SR leukemia) was 6.28 µM, the TGI (SR leukemia) was 40.6 µM and the GI50 (MDA-MB-435) was 16.7 µM. For the same compound, the TGI (MDA-MB-435) was 42.3 µM, the GI50 (HOP-92 NSCLC) was 2.69 µM and the TGI (HOP-92 NSCLC) was 40.4 µM. For the same compound, the GI50 (A549 NSCLC) was 30 µM, the TGI (A549 NSCLC) was > 100 µM and the GI50 (U251 CNS) was 3.23 µM. For the same compound, the TGI (U251 CNS) was 25.8 µM, the GI50 (SF-539 CNS) was 4.68 µM and the TGI (SF-539 CNS) was 19.4 µM. The GI50 (TK-10 renal) was 3.43 µM, the TGI (TK-10 renal) was 17.1 µM and the GI50 (KM12 colon) was 2.04 µM. The TGI (KM12 colon) was 14.5 µM, the GI50 (MOLT-4 leukemia) was 4.53 µM and the TGI (MOLT-4 leukemia) was > 74.4 µM. For the same compound, the GI50 (NCI-H522 lung) was 0.369 µM, the TGI (NCI-H522 lung) was 4.85 µM and the GI50 (MALME-3M melanoma) was 1.97 µM. For the same compound, the TGI (MALME-3M melanoma) was 8.92 µM, the GI50 (NCI-H23 lung) was 1.74 µM and the TGI (NCI-H23 lung) was 18.9 µM. For the same compound, the GI50 (NCI-H226 lung) was 16.8 µM and the TGI (NCI-H226 lung) was > 100 µM.
